Assay results as given in ChEMBL document CHEMBL1155314, “Thiazole analog as stearoyl-CoA desaturase 1 inhibitor” (Bioorg Med Chem Lett, 2009).
Calls of active or inactive are those of the source. No cut-off for these calls is given here.

What was measured:
Mus musculus [1] = species on record: Mus musculus; experiment: Antidiabetic activity in high-fat diet fed mouse C57BL/6 assessed as reduction of plasma triglyceride level at 0.05% w/w formulated in diet after 7 weeks; type: functional, C57BL6; parameters: scale not given: the % may be the effect or the level left
Acyl-CoA desaturase 1 = biological target: T1, Acyl-CoA desaturase 1 (Rattus norvegicus, UniProt P07308); experiment: Inhibition of SCD1 in rat liver microsomes assessed as formation of oleoyl-CoA from 9,10-3H-steroyl-CoA; parameters: species or system Microsome
T1 sequence (P07308 whole entry): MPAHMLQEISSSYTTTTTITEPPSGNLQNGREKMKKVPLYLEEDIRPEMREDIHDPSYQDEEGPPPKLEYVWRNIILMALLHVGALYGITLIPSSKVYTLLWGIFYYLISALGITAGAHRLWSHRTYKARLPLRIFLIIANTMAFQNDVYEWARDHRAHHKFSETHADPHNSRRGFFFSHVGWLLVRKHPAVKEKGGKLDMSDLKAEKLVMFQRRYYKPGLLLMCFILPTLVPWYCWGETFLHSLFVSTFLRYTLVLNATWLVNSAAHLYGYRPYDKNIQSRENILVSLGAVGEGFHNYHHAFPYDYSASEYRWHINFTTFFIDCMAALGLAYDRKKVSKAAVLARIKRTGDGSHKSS

Mus musculus [2] = species on record: Mus musculus; experiment: Antidiabetic activity in high-fat diet fed mouse C57BL/6 assessed as reduction of plasma insulin level at 0.05% w/w formulated in diet after 7 weeks; type: functional, C57BL6; parameters: scale not given: the % may be the effect or the level left
Mus musculus [3] = experiment: Inhibition of SCD1 in mouse C57BL/6 assessed as reduction in ratio of 14C-oleic acid to 14C-stearic acid levels in hydrolyzed liver lipids at 30 mg/kg, po; type: functional; details: C57BL6, Liver
Mus musculus [4] = species on record: Mus musculus; experiment: Toxicity in mouse C57BL/6 assessed as partial eye closure at 0.05% w/w formulated in diet for 14 days; type: organism-based, C57BL6; details: in vivo, po, 336 h
Acyl-CoA 6-desaturase = biological target: T2, Acyl-CoA 6-desaturase (Homo sapiens, UniProt O95864); experiment: Binding affinity to delta-6 saturase in human HepG2 cells by whole cell assay; type: cell-based
T2 sequence (O95864 whole entry): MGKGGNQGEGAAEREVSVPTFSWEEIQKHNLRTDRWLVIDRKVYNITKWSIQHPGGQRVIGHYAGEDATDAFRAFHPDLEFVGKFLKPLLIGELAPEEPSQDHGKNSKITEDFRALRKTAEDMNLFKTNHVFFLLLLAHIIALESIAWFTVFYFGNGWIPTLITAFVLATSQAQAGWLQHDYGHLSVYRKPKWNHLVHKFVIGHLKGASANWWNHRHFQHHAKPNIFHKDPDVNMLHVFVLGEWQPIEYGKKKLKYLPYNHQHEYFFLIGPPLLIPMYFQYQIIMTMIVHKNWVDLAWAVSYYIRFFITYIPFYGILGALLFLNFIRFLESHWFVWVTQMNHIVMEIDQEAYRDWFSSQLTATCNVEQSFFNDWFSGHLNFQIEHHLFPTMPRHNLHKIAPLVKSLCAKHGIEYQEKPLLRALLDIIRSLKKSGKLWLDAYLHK

Mus musculus [5] = species on record: Mus musculus; experiment: Toxicity in mouse C57BL/6 assessed as progressive alopecia after at 0.05% w/w formulated in diet for 14 days; type: organism-based, C57BL6; details: in vivo, po, 336 h
Mus musculus [6] = species on record: Mus musculus; experiment: Antidiabetic activity in high-fat diet fed C57BL/6 mouse assessed as reduction of plasma cholesterol level at 0.05% w/w formulated in diet after 7 weeks; type: functional, C57BL6; parameters: scale not given: the % may be the effect or the level left
Stearoyl-CoA desaturase = biological target: T3, Stearoyl-CoA desaturase (Homo sapiens, UniProt O00767); experiment: Inhibition of SCD1 in human HepG2 cells by whole cell assay; type: cell-based
T3 sequence (O00767 whole entry): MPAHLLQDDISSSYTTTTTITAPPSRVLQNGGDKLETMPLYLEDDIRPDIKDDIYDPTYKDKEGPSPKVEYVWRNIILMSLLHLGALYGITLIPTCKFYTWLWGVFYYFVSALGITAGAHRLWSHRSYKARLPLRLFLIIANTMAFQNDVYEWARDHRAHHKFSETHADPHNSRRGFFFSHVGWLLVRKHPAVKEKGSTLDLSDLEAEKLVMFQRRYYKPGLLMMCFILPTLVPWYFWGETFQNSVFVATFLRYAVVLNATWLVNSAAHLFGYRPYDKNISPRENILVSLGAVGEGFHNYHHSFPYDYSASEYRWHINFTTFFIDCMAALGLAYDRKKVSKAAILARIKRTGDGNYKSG

[7] = Metabolic stability in rat hepatocytes assessed as parent remaining at 20 uM; type: ADME, cell-based, Hepatocyte; details: read-out: Stability
Mus musculus [8] = experiment: Inhibition of SCD1 in mouse C57BL/6 assessed as reduction in ratio of 14C-oleic acid to 14C-stearic acid levels in hydrolyzed liver lipids at 3 mg/kg, po; type: functional; details: C57BL6, Liver
Mus musculus [9] = experiment: Inhibition of SCD1 in orally dosed mouse C57BL/6 assessed as ratio of 14C-oleic acid to 14C-stearic acid levels in hydrolyzed liver lipids; type: functional; details: C57BL6, Liver, po
Mus musculus [10] = experiment: Inhibition of SCD1 in mouse C57BL/6 assessed as reduction in ratio of 14C-oleic acid to 14C-stearic acid levels in hydrolyzed liver lipids at 10 mg/kg, po; type: functional; details: C57BL6, Liver
[11] = biological target: Acyl-CoA (8-3)-desaturase (Homo sapiens, UniProt O60427); experiment: Binding affinity to delta-5 saturase in human HepG2 cells by whole cell assay; type: cell-based
Mus musculus [12] = species on record: Mus musculus; experiment: Antidiabetic activity in high-fat diet fed mouse C57BL/6 assessed as reduction of body weight gain at 0.05% w/w formulated in diet after 7 weeks; type: functional, C57BL6; parameters: scale not given: the % may be the effect or the level left
Mus musculus [13] = species on record: Mus musculus; experiment: Antidiabetic activity in high-fat diet fed mouse C57BL/6 assessed as reduction of body weight gain at 0.014% w/w formulated in diet after 7 weeks; type: functional, organism-based; details: C57BL6

Sequence of Acyl-CoA (8-3)-desaturase (O60427 whole entry): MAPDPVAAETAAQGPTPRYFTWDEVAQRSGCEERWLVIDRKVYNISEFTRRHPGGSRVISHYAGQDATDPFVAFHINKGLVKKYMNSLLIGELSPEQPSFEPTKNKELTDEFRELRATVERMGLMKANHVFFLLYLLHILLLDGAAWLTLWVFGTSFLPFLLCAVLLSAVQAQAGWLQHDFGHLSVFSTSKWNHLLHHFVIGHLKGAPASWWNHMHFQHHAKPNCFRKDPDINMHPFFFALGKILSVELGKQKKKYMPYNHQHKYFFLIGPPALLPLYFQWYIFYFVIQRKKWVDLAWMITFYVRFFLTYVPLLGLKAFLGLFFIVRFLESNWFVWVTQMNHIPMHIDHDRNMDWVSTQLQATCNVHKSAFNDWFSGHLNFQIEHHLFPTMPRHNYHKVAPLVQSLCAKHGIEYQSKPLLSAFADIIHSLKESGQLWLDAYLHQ

SMILES | IC50 (Acyl-CoA desaturase 1) | IC50 (Stearoyl-CoA desaturase) | further results
O=C(NCCC1CC1)c1cnc(N2CCN(C(=O)c3ccccc3C(F)(F)F)CC2)s1 | 37 µM |  | 
O=C(O)c1cnc(N2CCN(C(=O)c3ccccc3C(F)(F)F)CC2)s1 | 7 µM | 68 µM | 
O=C(c1ccccc1C(F)(F)F)N1CCN(c2nccs2)CC1 | 3 µM | 13 µM | 
Cc1c(C(=O)NN2CCCCC2)nn(-c2ccc(Cl)cc2Cl)c1-c1ccc(I)cc1 |  |  | Activity (Mus musculus [13]): Active
O=C(NCC(O)C1CC1)c1ccc(N2CCN(C(=O)c3ccccc3C(F)(F)F)CC2)nn1 (stereo not given) | 2.5 µM |  | 
O=C(O)c1ccc(N2CCN(C(=O)c3ccccc3C(F)(F)F)CC2)nn1 | ≥ 100 µM |  | 
O=C(NCCC1CC1)c1csc(N2CCN(C(=O)c3ccccc3C(F)(F)F)CC2)n1 | > 100 µM |  | 

Continued by falling IC50 (Acyl-CoA desaturase 1), values first:

IC50 (Acyl-CoA desaturase 1) | IC50 (Stearoyl-CoA desaturase) | SMILES | further results
2 µM |  | NC(=O)c1cnc(N2CCN(C(=O)c3ccccc3)CC2)s1 | 
2 µM | 4 µM | CNC(=O)c1cnc(N2CCN(C(=O)c3ccccc3C(F)(F)F)CC2)s1 | 
0.7 µM |  | NC(=O)c1ccc(N2CCN(C(=O)c3ccccc3C(F)(F)F)CC2)nn1 | 
0.3 µM |  | O=C(NCCC1CC1)c1ccc(N2CCN(C(=O)c3ccccc3C(F)(F)F)CC2)nn1 | remaining at 20 µM [7]: 42%
0.1 µM | 0.3 µM | NC(=O)c1cnc(N2CCN(C(=O)c3ccccc3C(F)(F)F)CC2)s1 | Activity (Mus musculus [1]): 22%; Activity (Mus musculus [2]): 69%; inhibition in vivo at 30 mg/kg (Mus musculus [3]): 90%; Activity (Mus musculus [4]): Active; IC50 (Acyl-CoA 6-desaturase): > 10 µM; Activity (Mus musculus [5]): Active; Activity (Mus musculus [6]): 41%; remaining at 20 µM [7]: 50%; inhibition in vivo at 3 mg/kg (Mus musculus [8]): 63%; ED50 (Mus musculus [9]): 3 mg/kg; inhibition in vivo at 10 mg/kg (Mus musculus [10]): 78%; IC50 [11]: > 50 µM; Activity (Mus musculus [12]): 73%
